Patent publication US11345694B2, “Antibacterial compounds” (DISCUVA LTD., priority 2017, dated 2022)
Values after ≈ are worked out from the molar mass of the structure shown.

How the values were obtained:
[1] = tested on: E. coli NCTC 13441 (UPEC); test: MIC broth microdilution; format: cell-based, Escherichia coli; conditions: Escherichia coli, NCTC13441
Description: (§1) Minimum Inhibitory Concentrations (MICs) versus planktonic bacteria are determined by the broth microdilution procedure according to the guidelines of the Clinical and Laboratory Standards Institute (Clinical and Laboratory Standards Institute. Methods for Dilution Antimicrobial Susceptibility Tests for Bacteria That Grow Aerobically; Approved Standard-tenth Edition. CLSI document M07-A10, 2015). The broth dilution method involves a two-fold serial dilution of compounds in 96-well microtitre plates, giving a final concentration range of 0.39-200 μM and a maximum final concentration of 2% DMSO. The bacterial strains tested include Escherichia coli K12 (EC), E. coli NCTC 13441 (UPEC), Staphylococcus aureus ATCC 35556 (SA), Acinetobacter baumannii ATCC 17978 (AB), Pseudomonas aeruginosa ATCC 33359 (PA), Enterobacter cloacae DSM 30054 (Ed), Serratia marcescens SL1344 (Sm), Salmonella typhimurium XNAA5 (St), Klebsiella pneumoniae ATCC 10031 (KP2), K. pneumoniae NCTC 13438 (KP1), K. pneumoniae ATCC 700603 (KP3), Klebsiella pneumoniae ATCC 51504 (KP4), K. pneumoniae H154680676 (KP5), K. pneumoniae H154020667 (KP6), K. pneumoniae H154640784 (KP7), K. pneumoniae H154600588 (KP8), K. pneumoniae H154300688 (KP9), K. pneumoniae H151440671 (KP10). Strains are grown in cation-adjusted Müller-Hinton broth or on Luria Bertoni agar at 37° C. in an ambient atmosphere. The MIC is determined as the lowest concentration of compound that inhibits growth following a 20-24 hour incubation period.

[2] = tested on: Acinetobacter baumannii ATCC 17978 (AB); test: MIC broth microdilution; format: cell-based; conditions: ATCC17978
Description: as §1

[3] = tested on: Escherichia coli K12 (EC); test: MIC broth microdilution; format: cell-based
Description: as §1

[4] = tested on: Klebsiella pneumoniae ATCC 10031 (KP2); test: MIC broth microdilution; format: cell-based; conditions: ATCC10031
Description: as §1

[5] = tested on: Pseudomonas aeruginosa ATCC 33359 (PA); test: MIC broth microdilution; format: cell-based; conditions: ATCC33359
Description: as §1

[6] = tested on: Staphylococcus aureus ATCC 35556 (SA); test: MIC broth microdilution; format: cell-based; conditions: ATCC35556
Description: as §1

[7] = tested on: K. pneumoniae NCTC 13438 (KP1); test: MIC broth microdilution; format: cell-based, Klebsiella pneumoniae; conditions: Klebsiella pneumoniae, NCTC13438
Description: as §1

[8] = tested on: human hepatocarcinoma cell line ATCC HB-8065 (HepG2); test: Human cell viability (CellTiter-Glo); format: cell-based; conditions: Homo sapiens; HepG2 cells, 24 h incubation, CellTiter-Glo luminescence, 0.2-100 μM; read-out: IC50 values against the HepG2 cell line
Description: Compounds are assessed for potential non-specific cytotoxic effects against the human hepatocarcinoma cell line ATCC HB-8065 (HepG2). HepG2 cells are seeded at 20,000 cells/well in 96-well microtitre plates in minimal essential medium (MEM) supplemented with a final concentration of 10% FBS. After 24 h, compound dilutions are prepared in MEM supplemented with a final concentration of 1% FBS, and added to the cells. Compounds are tested in two-fold serial dilutions over a final concentration range of 0.2-100 μM in a final DMSO concentration of 1% vol/vol. Thioridazine is used as a positive control. Cells are incubated with compound at 37° C. and 5% CO2 for a further 24 h, after which time the CellTiter-Glo reagent (Promega) is added. Luminescence is measured on a Perkin Elmer Envision plate reader. Data are analysed using a 4 parameter logistic regression to determine the concentration of compound that inhibits cell viability by fifty percent (IC50).

SMILES	MIC [1]	MIC [2]	MIC [3]	MIC [4]	MIC [5]	MIC [6]	MIC [7]	IC50 [8]
COc1cccc(-c2nc(N)[nH]c2-c2ccnc(C)c2)c1 [Example 25, 4-(3-Methoxyphenyl)-5-(2-methylpyridin-4-yl)-1H-imidazol-2-amine]	10 to 100 µM (≈ 2.8 to 28 µg/mL)	> 100 µM	10 to 100 µM (≈ 2.8 to 28 µg/mL)	≤ 1 µM	> 100 µM	> 100 µM	10 to 100 µM (≈ 2.8 to 28 µg/mL)	> 100 µM
Cc1cc(-c2[nH]c(N)nc2-c2ccc3c(c2)N(C2CCCC2)CCO3)ccn1 [Example 94, 4-(4-Cyclopentyl-3,4-dihydro-2H-benzo[b][1,4]oxazin-6-yl)-5-(2-methylpyridin-4-yl)-1H-imidazol-2-amine]	≤ 1 µM	> 100 µM	≤ 1 µM	≤ 1 µM	> 100 µM	> 100 µM	1 to 10 µM (≈ 0.375 to 3.75 µg/mL)	25 to 100 µM
Cc1cc(-c2[nH]c(N)nc2-c2cc3c(cc2F)OCC(=O)N3)ccn1 [Example 54, 6-(2-Amino-5-(2-methylpyridin-4-yl)-1H-imidazol-4-yl)-7-fluoro-2H-benzo[b][1,4]oxazin-3(4H)-one]	1 to 10 µM (≈ 0.339 to 3.39 µg/mL)	> 100 µM	1 to 10 µM (≈ 0.339 to 3.39 µg/mL)	≤ 1 µM	> 100 µM	> 100 µM	10 to 100 µM (≈ 3.39 to 33.9 µg/mL)	> 100 µM
Cc1cc(-c2nc(N)[nH]c2-c2ccc(C(=O)N(C)C)cc2)ccn1 [Example 10, 4-(2-Amino-4-(2-methylpyridin-4-yl)-1H-imidazol-5-yl)-N,N-dimethylbenzamide]	> 100 µM	> 100 µM	> 100 µM	1 to 10 µM (≈ 0.321 to 3.21 µg/mL)	> 100 µM	> 100 µM	> 100 µM	> 100 µM
Cc1cc(-c2[nH]c(Cl)nc2-c2ccc3c(c2)OCCO3)ccn1 [Example 83, 4-(2-Chloro-4-(2,3-dihydrobenzo[b][1,4]dioxin-6-yl)-1H-imidazol-5-yl)-2-methylpyridine]	1 to 10 µM (≈ 0.328 to 3.28 µg/mL)	> 100 µM	1 to 10 µM (≈ 0.328 to 3.28 µg/mL)	≤ 1 µM	> 100 µM	> 100 µM	> 100 µM	> 100 µM
COc1ccc(-c2[nH]c(N)nc2-c2ccnc(C)c2)cc1F [Example 11, 5-(3-Fluoro-4-methoxyphenyl)-4-(2-methylpyridin-4-yl)-1H-imidazol-2-amine]	1 to 10 µM (≈ 0.298 to 2.98 µg/mL)	> 100 µM	1 to 10 µM (≈ 0.298 to 2.98 µg/mL)	≤ 1 µM	> 100 µM	> 100 µM	10 to 100 µM (≈ 2.98 to 29.8 µg/mL)	> 100 µM
Cc1cc(-c2[nH]c(N)nc2-c2ccc3c(c2)NC(=O)C(C)O3)ccn1 (stereo not drawn) [Example 33, 6-(2-Amino-5-(2-methylpyridin-4-yl)-1H-imidazol-4-yl)-2-methyl-2H-benzo[b][1,4]oxazin-3(4H)-one]	1 to 10 µM (≈ 0.335 to 3.35 µg/mL)	> 100 µM	1 to 10 µM (≈ 0.335 to 3.35 µg/mL)	≤ 1 µM	> 100 µM	> 100 µM	10 to 100 µM (≈ 3.35 to 33.5 µg/mL)	> 100 µM
Cc1cc(-c2[nH]c(N)nc2-c2ccc3c(c2)N(CCO)C(=O)CO3)ccn1 [Example 66, 6-(2-Amino-4-(2-methylpyridin-4-yl)-1H-imidazol-5-yl)-4-(2-hydroxyethyl)-2H-benzo[b][1,4]oxazin-3(4H)-one]	1 to 10 µM (≈ 0.365 to 3.65 µg/mL)	> 100 µM	1 to 10 µM (≈ 0.365 to 3.65 µg/mL)	≤ 1 µM	> 100 µM	> 100 µM	10 to 100 µM (≈ 3.65 to 36.5 µg/mL)	> 100 µM
Cc1cc(-c2[nH]c(N)nc2-c2ccc3oc(C)nc3c2)ccn1 [Example 37, 4-(2-Methylbenzo[d]oxazol-5-yl)-5-(2-methylpyridin-4-yl)-1H-imidazol-2-amine]	1 to 10 µM (≈ 0.305 to 3.05 µg/mL)	> 100 µM	1 to 10 µM (≈ 0.305 to 3.05 µg/mL)	≤ 1 µM	> 100 µM	> 100 µM	10 to 100 µM (≈ 3.05 to 30.5 µg/mL)	> 100 µM
